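Step 1: Grow cells in 96-well plates. Step 2: Expose to compound for 48 hours at 5 concentrations. Step 3: Interpolate endpoints linearly; if unreached, use highest concentration. GI50 is the concentration that inhibits growth by half. Definition used: TGI = concentration required for complete inhibition of growth.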

Test systems include PC-3 prostate; OVCAR-3 ovarian; SW-620 colon; 786-0 renal; U251 CNS; SF-268 CNS; SNB-75 CNS; NCI/ADR-RES ovarian; UO-31 renal; A549 NSCLC.
Common to all, as to experiment: inhibition of tumour cell growth, NCI panel, 48 h

Take `COC(=O)CN(CC(=O)NCCCBr)C1CCCCC1N(CC(=O)OC)CC(=O)OC` (centres undefined): the TGI in the experiment with PC-3 prostate, in the experiment with OVCAR-3 ovarian, with SW-620 colon, in the experiment with 786-0 renal, in the experiment with U251 CNS and in the experiment with SF-268 CNS was more than 100 µM throughout. Besides, the TGI in the experiment on SNB-75 CNS is 64.9 µM; in the experiment on NCI/ADR-RES ovarian it was more than 100 µM; in the experiment with UO-31 renal, more than 100 µM; in the experiment on A549 NSCLC, more than 100 µM.

Take `C[C@@]1(CCCCCCCCCCc2ccccc2)C[C@@]2(C)OC(=O)C[C@H]2OO1`: the TGI came out at 4.41 µM with PC-3 prostate; 34.6 µM in the experiment on OVCAR-3 ovarian; 40.7 µM in the experiment on SW-620 colon; 32.9 µM in the experiment on 786-0 renal; 33.1 µM in the experiment with U251 CNS; 7.95 µM in the experiment on SF-268 CNS. The TGI was 6.79 µM in the experiment with SNB-75 CNS, 55.8 µM with NCI/ADR-RES ovarian, 49.9 µM in the experiment with UO-31 renal and more than 84.6 µM in the experiment with A549 NSCLC.

In the case of `CC(C)C(Nc1ncnc2nc[nH]c12)C(=O)O` (centres undefined), the TGI in the experiment on PC-3 prostate, in the experiment with OVCAR-3 ovarian, in the experiment with SW-620 colon, in the experiment with 786-0 renal, in the experiment with U251 CNS and in the experiment with SF-268 CNS was more than 100 µM each time. The TGI with SNB-75 CNS, in the experiment with NCI/ADR-RES ovarian, in the experiment with UO-31 renal and with A549 NSCLC was more than 100 µM in each case.

Regarding `Cn1c(-c2ccc(-c3cc(-c4cccs4)c(-c4cccs4)n3C)cc2)cc(-c2cccs2)c1-c1cccs1`, the TGI in the experiment with PC-3 prostate, in the experiment on SW-620 colon, in the experiment on 786-0 renal, in the experiment on U251 CNS, in the experiment on SF-268 CNS and in the experiment with SNB-75 CNS was more than 100 µM each time. Besides, the TGI in the experiment on NCI/ADR-RES ovarian, in the experiment on UO-31 renal and in the experiment with A549 NSCLC was more than 100 µM each time.

For `O=c1[nH]c2ccccc2c(O)c1Cc1ccccc1`, the TGI with PC-3 prostate, in the experiment with OVCAR-3 ovarian, in the experiment with SW-620 colon, with 786-0 renal, in the experiment with U251 CNS and in the experiment with SF-268 CNS was more than 100 µM throughout. Besides, the TGI in the experiment on SNB-75 CNS, in the experiment on NCI/ADR-RES ovarian and with A549 NSCLC was more than 100 µM each time.

Regarding `CCC(C)(C)c1cc(O)c(C(C)(C)CC)cc1O`, the GI50 with PC-3 prostate was 3.43 µM; in the experiment on OVCAR-3 ovarian it was 2.78 µM; in the experiment with SW-620 colon, 2.35 µM; in the experiment on U251 CNS, 2.18 µM; in the experiment on SF-268 CNS, 3.92 µM; with SNB-75 CNS, 3.14 µM. The GI50 in the experiment on NCI/ADR-RES ovarian was 2.96 µM; with A549 NSCLC, 3.2 µM. The TGI with PC-3 prostate is 13.2 µM; in the experiment with OVCAR-3 ovarian, 7.54 µM; in the experiment on SW-620 colon, 6.89 µM; in the experiment with U251 CNS it was 6.23 µM; in the experiment on SF-268 CNS it was 15.6 µM; with SNB-75 CNS, 16.5 µM. The TGI in the experiment on NCI/ADR-RES ovarian was determined as 11.3 µM; in the experiment with A549 NSCLC, 11.9 µM.

As to `COc1cccc2c1NC(=O)Cc1c-2[nH]c2ccccc12`, the TGI in the experiment on PC-3 prostate, in the experiment with OVCAR-3 ovarian, in the experiment on SW-620 colon, with 786-0 renal, with U251 CNS and in the experiment on SF-268 CNS was more than 100 µM in each case. Moreover, the TGI in the experiment on SNB-75 CNS, with NCI/ADR-RES ovarian, in the experiment on UO-31 renal and in the experiment with A549 NSCLC was more than 100 µM throughout.

For `CC(=O)C1=C(C)O[C@@H]2O[C@H](COCc3ccccc3)[C@@H](OCc3ccccc3)[C@H](O)[C@@H]2S1`, the TGI in the experiment on PC-3 prostate was determined as 77.3 µM; in the experiment on OVCAR-3 ovarian, 29.4 µM; in the experiment on SW-620 colon it was 75.5 µM; in the experiment on 786-0 renal, 60.6 µM; in the experiment with U251 CNS it was 38.5 µM; in the experiment on SF-268 CNS, 32 µM. In addition, the TGI in the experiment with SNB-75 CNS was 77.1 µM; with NCI/ADR-RES ovarian, 51.6 µM; in the experiment with UO-31 renal it was 37.7 µM; in the experiment on A549 NSCLC, more than 100 µM.

Turning to `Cn1c(-c2ccc[se]2)ccc1-c1ccc(C=O)[se]1`, the TGI in the experiment with PC-3 prostate was more than 100 µM; in the experiment on OVCAR-3 ovarian it was 5.71 µM; in the experiment on SW-620 colon it was more than 51.6 µM; in the experiment with 786-0 renal, more than 100 µM; with U251 CNS, 25.4 µM; in the experiment with SF-268 CNS it was 59.1 µM. Moreover, the TGI was more than 65.1 µM in the experiment on SNB-75 CNS, 9.13 µM with NCI/ADR-RES ovarian, more than 100 µM with UO-31 renal and more than 100 µM in the experiment with A549 NSCLC.

For `COC(C/C(=C/CO[Si](C(C)C)(C(C)C)C(C)C)C(=O)N(C(=O)OC(C)(C)C)c1ccccc1I)OC`, the TGI in the experiment on PC-3 prostate is 77.4 µM; in the experiment with OVCAR-3 ovarian, more than 100 µM; with SW-620 colon it was more than 100 µM; in the experiment on 786-0 renal, more than 100 µM; in the experiment with U251 CNS it was more than 100 µM; in the experiment on SF-268 CNS, more than 100 µM. The TGI in the experiment on SNB-75 CNS, in the experiment on NCI/ADR-RES ovarian, with UO-31 renal and in the experiment with A549 NSCLC was more than 100 µM each time.

For the compound `Cc1cc2c(c(C(=O)NCC(=O)N[C@@H](C)C(=O)OCc3ccccc3)c1)Oc1c(cc(C)cc1C(=O)NCC(=O)N[C@@H](C)C(=O)OCc1ccccc1)S2`, the TGI in the experiment on PC-3 prostate, in the experiment on OVCAR-3 ovarian, in the experiment with SW-620 colon, in the experiment with 786-0 renal, in the experiment with U251 CNS and with SF-268 CNS was more than 100 µM in each case. Besides, the TGI in the experiment with SNB-75 CNS is 46.1 µM; in the experiment with NCI/ADR-RES ovarian, more than 100 µM; in the experiment on UO-31 renal, more than 100 µM; in the experiment on A549 NSCLC, more than 100 µM.

As for `COc1ccccc1NC(=S)N=Nc1c(O)[nH]c2ccccc12`, the TGI in the experiment with PC-3 prostate was more than 100 µM; in the experiment with OVCAR-3 ovarian, more than 100 µM; in the experiment with SW-620 colon it was more than 100 µM; in the experiment on 786-0 renal it was more than 100 µM; in the experiment with U251 CNS it was more than 100 µM; with SF-268 CNS, 13.5 µM. The TGI in the experiment with SNB-75 CNS, with NCI/ADR-RES ovarian, in the experiment on UO-31 renal and in the experiment with A549 NSCLC was more than 100 µM in each case.

Regarding `COc1cc(CC(C)=O)cc(OC)c1`, the TGI in the experiment with PC-3 prostate, in the experiment on OVCAR-3 ovarian, with SW-620 colon, in the experiment on 786-0 renal, with U251 CNS and in the experiment with SF-268 CNS was more than 100 µM in each case. Also, the TGI in the experiment on SNB-75 CNS, in the experiment with NCI/ADR-RES ovarian, with UO-31 renal and with A549 NSCLC was more than 100 µM each time.
